Reference: PubChem BioAssay AID1259407 (Chemical Carcinogenesis Research Information System (CCRIS), 2018)
Active and inactive are the calls of the source. How the calls were made is not given here.

System: CCRIS mutagenicity, Ames/micronucleus/aberration tests
Assay: CCRIS mutagenicity studies
[1] = Test System: AMES SALMONELLA TYPHIMURIUM, Strain/Indicator: TA98, Metabolic Activation: NONE, Method: STANDARD PLATE
[2] = Test System: AMES SALMONELLA TYPHIMURIUM, Strain/Indicator: TA98, Metabolic Activation: RAT, LIVER, S-9, AROCLOR 1254, Method: STANDARD PLATE
[3] = Test System: AMES SALMONELLA TYPHIMURIUM, Strain/Indicator: TA100, Metabolic Activation: NONE, Method: STANDARD PLATE
[4] = Test System: AMES SALMONELLA TYPHIMURIUM, Strain/Indicator: TA100, Metabolic Activation: RAT, LIVER, S-9, AROCLOR 1254, Method: STANDARD PLATE
[5] = Test System: AMES SALMONELLA TYPHIMURIUM, Strain/Indicator: TA1535, Metabolic Activation: NONE, Method: STANDARD PLATE
[6] = Test System: AMES SALMONELLA TYPHIMURIUM, Strain/Indicator: TA1535, Metabolic Activation: RAT, LIVER, S-9, AROCLOR 1254, Method: STANDARD PLATE
[7] = Test System: AMES SALMONELLA TYPHIMURIUM, Strain/Indicator: TA1537, Metabolic Activation: NONE, Method: STANDARD PLATE
[8] = Test System: AMES SALMONELLA TYPHIMURIUM, Strain/Indicator: TA1537, Metabolic Activation: RAT, LIVER, S-9, AROCLOR 1254, Method: STANDARD PLATE

## O=C([O-])c1ccccn1.O=C([O-])c1ccccn1.O=C([O-])c1ccccn1.[Cr+3]
End Point: In vivo chromosomal aberrations, Test System: Bone marrow cells, Species: Rat, Strain/Sex: Sprague-Dawley/Male and female, Route: Oral (gavage) once
  mutagenic call: inactive; negative
End Point: In vivo micronucleus, Test System: Bone marrow polychromatic erythrocytes, Species: Rat, Strain/Sex: F344/N / Male, Route: Oral
  mutagenic call: inactive; negative
Test System: AMES SALMONELLA TYPHIMURIUM, Strain/Indicator: TA98, Metabolic Activation: HAMSTER LIVER S-9, AROCLOR 1254, Method: STANDARD PLATE
  mutagenic call: inactive; negative
Test System: AMES SALMONELLA TYPHIMURIUM, Strain/Indicator: TA98, Metabolic Activation: HAMSTER, LIVER, S-9, AROCLOR 1254, Method: STANDARD PLATE
  mutagenic call: inactive; negative
[1]
  mutagenic call: inactive; negative
Test System: AMES SALMONELLA TYPHIMURIUM, Strain/Indicator: TA98, Metabolic Activation: RAT LIVER S-9, AROCLOR 1254, Method: STANDARD PLATE
  mutagenic call: inactive; negative
[2]
  mutagenic call: inactive; negative
Test System: AMES SALMONELLA TYPHIMURIUM, Strain/Indicator: TA100, Metabolic Activation: HAMSTER LIVER S-9, AROCLOR 1254, Method: STANDARD PLATE
  mutagenic call: inactive; negative
Test System: AMES SALMONELLA TYPHIMURIUM, Strain/Indicator: TA100, Metabolic Activation: HAMSTER, LIVER, S-9, AROCLOR 1254, Method: STANDARD PLATE
  mutagenic call: inactive; negative
[3]
  mutagenic call: inactive; negative
Test System: AMES SALMONELLA TYPHIMURIUM, Strain/Indicator: TA100, Metabolic Activation: RAT LIVER S-9, AROCLOR 1254, Method: STANDARD PLATE
  mutagenic call: inactive; negative
[4]
  mutagenic call: inactive; negative
Test System: AMES SALMONELLA TYPHIMURIUM, Strain/Indicator: TA102, Metabolic Activation: HAMSTER LIVER S-9, AROCLOR 1254, Method: STANDARD PLATE
  mutagenic call: inactive; negative
Test System: AMES SALMONELLA TYPHIMURIUM, Strain/Indicator: TA102, Metabolic Activation: NONE, Method: STANDARD PLATE
  mutagenic call: inactive; negative
Test System: AMES SALMONELLA TYPHIMURIUM, Strain/Indicator: TA102, Metabolic Activation: RAT LIVER S-9, AROCLOR 1254, Method: STANDARD PLATE
  mutagenic call: inactive; negative
Test System: AMES SALMONELLA TYPHIMURIUM, Strain/Indicator: TA1535, Metabolic Activation: HAMSTER LIVER S-9, AROCLOR 1254, Method: STANDARD PLATE
  mutagenic call: inactive; negative
Test System: AMES SALMONELLA TYPHIMURIUM, Strain/Indicator: TA1535, Metabolic Activation: HAMSTER, LIVER, S-9, AROCLOR 1254, Method: STANDARD PLATE
  mutagenic call: inactive; negative
[5]
  mutagenic call: inactive; negative
Test System: AMES SALMONELLA TYPHIMURIUM, Strain/Indicator: TA1535, Metabolic Activation: RAT LIVER S-9, AROCLOR 1254, Method: STANDARD PLATE
  mutagenic call: inactive; negative
[6]
  mutagenic call: inactive; negative
Test System: AMES SALMONELLA TYPHIMURIUM, Strain/Indicator: TA1537, Metabolic Activation: HAMSTER LIVER S-9, AROCLOR 1254, Method: STANDARD PLATE
  mutagenic call: inactive; negative
Test System: AMES SALMONELLA TYPHIMURIUM, Strain/Indicator: TA1537, Metabolic Activation: HAMSTER, LIVER, S-9, AROCLOR 1254, Method: STANDARD PLATE
  mutagenic call: inactive; negative
[7]
  mutagenic call: inactive; negative
Test System: AMES SALMONELLA TYPHIMURIUM, Strain/Indicator: TA1537, Metabolic Activation: RAT LIVER S-9, AROCLOR 1254, Method: STANDARD PLATE
  mutagenic call: inactive; negative
[8]
  mutagenic call: inactive; negative
Test System: Ames Salmonella typhimurium, Strain/Indicator: TA97, Metabolic Activation: Hamster, Liver, S-9, Aroclor 1254 (10 and 30%), Method: Preincubation
  mutagenic call: inactive; negative
Test System: Ames Salmonella typhimurium, Strain/Indicator: TA97, Metabolic Activation: None, Method: Preincubation
  mutagenic call: inactive; negative
Test System: Ames Salmonella typhimurium, Strain/Indicator: TA97, Metabolic Activation: Rat, Liver, S-9, Aroclor 1254 (10 and 30%), Method: Preincubation
  mutagenic call: inactive; negative
Test System: Ames Salmonella typhimurium, Strain/Indicator: TA98, Metabolic Activation: Hamster, Liver, S-9, Aroclor 1254 (10 and 30%), Method: Preincubation
  mutagenic call: inactive; negative
Test System: Ames Salmonella typhimurium, Strain/Indicator: TA98, Metabolic Activation: None, Method: Preincubation
  mutagenic call: inactive; negative
Test System: Ames Salmonella typhimurium, Strain/Indicator: TA98, Metabolic Activation: Rat, Liver, S-9, Aroclor 1254 (10 and 30%), Method: Preincubation
  mutagenic call: inactive; negative
Test System: Ames Salmonella typhimurium, Strain/Indicator: TA100, Metabolic Activation: Hamster, Liver, S-9, Aroclor 1254 (10 and 30%), Method: Preincubation
  mutagenic call: inactive; negative
Test System: Ames Salmonella typhimurium, Strain/Indicator: TA100, Metabolic Activation: None, Method: Preincubation
  mutagenic call: inactive; negative
Test System: Ames Salmonella typhimurium, Strain/Indicator: TA100, Metabolic Activation: Rat, Liver, S-9, Aroclor 1254 (10 and 30%), Method: Preincubation
  mutagenic call: inactive; negative
Test System: Ames Salmonella typhimurium, Strain/Indicator: TA102, Metabolic Activation: Hamster, Liver, S-9, Aroclor 1254 (10 and 30%), Method: Preincubation
  mutagenic call: inactive; negative
Test System: Ames Salmonella typhimurium, Strain/Indicator: TA102, Metabolic Activation: Hamster, Liver, S-9, Aroclor 1254 (30%), Method: Preincubation
  mutagenic call: inactive; negative
Test System: Ames Salmonella typhimurium, Strain/Indicator: TA102, Metabolic Activation: None, Method: Preincubation
  mutagenic call: inactive; negative
Test System: Ames Salmonella typhimurium, Strain/Indicator: TA102, Metabolic Activation: Rat, Liver, S-9, Aroclor 1254 (10 and 30%), Method: Preincubation
  mutagenic call: inactive; negative
Test System: Ames Salmonella typhimurium, Strain/Indicator: TA102, Metabolic Activation: Rat, Liver, S-9, Aroclor 1254 (30%), Method: Preincubation
  mutagenic call: inactive; negative
Test System: Ames Salmonella typhimurium, Strain/Indicator: TA104, Metabolic Activation: Hamster, Liver, S-9, Aroclor 1254 (10 and 30%), Method: Preincubation
  mutagenic call: inactive; negative
Test System: Ames Salmonella typhimurium, Strain/Indicator: TA104, Metabolic Activation: Hamster, Liver, S-9, Aroclor 1254 (30%), Method: Preincubation
  mutagenic call: inactive; negative
Test System: Ames Salmonella typhimurium, Strain/Indicator: TA104, Metabolic Activation: None, Method: Preincubation
  mutagenic call: inactive; negative
Test System: Ames Salmonella typhimurium, Strain/Indicator: TA104, Metabolic Activation: Rat, Liver, S-9, Aroclor 1254 (10 and 30%), Method: Preincubation
  mutagenic call: inactive; negative
Test System: Ames Salmonella typhimurium, Strain/Indicator: TA104, Metabolic Activation: Rat, Liver, S-9, Aroclor 1254 (30%), Method: Preincubation
  mutagenic call: inactive; negative
Test System: Ames Salmonella typhimurium, Strain/Indicator: TA1535, Metabolic Activation: Hamster, Liver, S-9, Aroclor 1254 (10 and 30%), Method: Preincubation
  mutagenic call: inactive; negative
Test System: Ames Salmonella typhimurium, Strain/Indicator: TA1535, Metabolic Activation: None, Method: Preincubation
  mutagenic call: inactive; negative
Test System: Ames Salmonella typhimurium, Strain/Indicator: TA1535, Metabolic Activation: Rat, Liver, S-9, Aroclor 1254 (10 and 30%), Method: Preincubation
  mutagenic call: inactive; negative
Test System: CHINESE HAMSTER OVARY CELLS, Strain/Indicator: CHO CELLS (HPRT)/6-THIOGUANINE, Metabolic Activation: NONE, Method: STANDARD PLATE
  mutagenic call: active; positive
Test System: CHINESE HAMSTER OVARY CELLS, Strain/Indicator: CHO-K1/HPRT/6-THIOGUANINE, Metabolic Activation: NONE, Method: 5 HR EXPOSURE
  mutagenic call: inactive; negative
Test System: CHINESE HAMSTER OVARY CELLS, Strain/Indicator: CHO-K1/HPRT/6-THIOGUANINE, Metabolic Activation: NONE, Method: 48 HR EXPOSURE
  mutagenic call: inactive; negative
Test System: CHINESE HAMSTER OVARY CELLS, Strain/Indicator: CHO-K1/HPRT/6-THIOGUANINE, Metabolic Activation: RAT, LIVER, S-9, AROCLOR 1254, Method: 5 HR EXPOSURE
  mutagenic call: inactive; negative

## CN(CCO)C(=O)Nc1ccc(Cl)c(Cl)c1
[1]
  mutagenic call: inactive; negative
[2]
  mutagenic call: inactive; negative
[3]
  mutagenic call: inactive; negative
[4]
  mutagenic call: inactive; negative
[5]
  mutagenic call: inactive; negative
[6]
  mutagenic call: inactive; negative
[7]
  mutagenic call: inactive; negative
[8]
  mutagenic call: inactive; negative
Test System: AMES SALMONELLA TYPHIMURIUM, Strain/Indicator: TA1538, Metabolic Activation: NONE, Method: STANDARD PLATE
  mutagenic call: inactive; negative
Test System: AMES SALMONELLA TYPHIMURIUM, Strain/Indicator: TA1538, Metabolic Activation: RAT, LIVER, S-9, AROCLOR 1254, Method: STANDARD PLATE
  mutagenic call: inactive; negative
